Results reported in patent US8450373B2, “Alpha ketoamide compounds as cysteine protease inhibitors” (Virobay, Inc., priority 2005, dated 2013).

## CC[C@H](NC(=O)[C@H](CCS(C)(=O)=O)N[C@@H](c1ccc(F)cc1)C(F)(F)F)C(=O)C(=O)NC1CC1 [Table I Cpd. 78, N-cyclopropyl-3S-{4-methanesulfonyl-2S-[2,2,2-trifluoro-1S-(4-fluoro-phenyl)-ethylamino]-butyrylamino}-2-oxo-pentanamide]
  melting point: 152.5 to 153.5 °C
